Source: paper PMC10176470, “Engaging a Non-catalytic Cysteine Residue Drives Potent and Selective Inhibition of Caspase-6” (Journal of the American Chemical Society, 2023)

Key:
caspase-3 (C3) = molecular target: T1, caspase-3 (C3) (Homo sapiens, UniProt P42574); test: Caspase-3 biochemical activity assay with fluorogenic substrate; settings: read-out: Casp-3 IC50
T1 sequence (P42574 29-175 limits assumed): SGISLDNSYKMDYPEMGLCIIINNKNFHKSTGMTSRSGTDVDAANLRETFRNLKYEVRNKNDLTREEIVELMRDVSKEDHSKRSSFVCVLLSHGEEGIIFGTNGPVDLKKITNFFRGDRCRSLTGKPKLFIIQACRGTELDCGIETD
Description: Error bars represent the standard deviation of thre replicate measurements. […] Activity measured by the cleavage of aminofluorocoumarin-labeled peptides (see the Supporting Information for sequences). C = caspase.

C6 small subunit = molecular target: T2, C6 small subunit (Homo sapiens, UniProt P55212); test: Disulfide tethering assay (% labeling by LC/MS), small subunit; assay type: binding
T2 construct: 194-293-Leu-Glu-His6 (SS) from caspase-6 cDNA (Origene); Leu-Glu-His6 (C); made in house; host or cells: E. coli Rosetta 2 pLysS DE3

C6 large subunit = molecular target: T3, C6 large subunit (Homo sapiens, UniProt P55212); test: Disulfide tethering assay (% labeling by LC/MS), large subunit; assay type: binding
T3 construct: Residues 30-179 (LS); made in house; host or cells: E. coli Rosetta 2 pLysS DE3

[1] = system: lamin A cleavage by caspase-6 in SK-N-AS cells; test: Lamin cleavage assay (in-cell western after staurosporine induction); assay type: cell-based; settings: Homo sapiens, 1 h compound then 10 μM staurosporine
Description: This assay measured lamin A cleavage under staurosporine-induced caspase activation; while staurosporine activates all executioner caspases, lamin A cleavage monitors only the activity of C6. After 1 h of preincubation with the compound and 3 h of incubation with staurosporine, lamin A cleavage was measured by in-cell western.
Inhibition of lamin A cleavage in SK-N-AS cells after staurosporine induction of caspases. Cells were treated with the indicated compound for 1 h before the addition of 10 μM staurosporine for 4 h. Error bars indicate the standard deviation from n = 4 replicate samples.
serves as a useful target-engagement assay in cells. We used the procedure of Mintz, et al, with the following modifications: SK-N-AS cells were seeded at 10,000 cells/well in black clear bottom 384-
well plates coated with poly-D-lysine and allowed to adhere overnight. Wells were treated with
varying doses of casapase-6 inhibitor, from 5 µM – 0.1 nM in 2-fold dilutions. After one hour, cells
were treated with 10 µM staurosporine to induce apoptosis and activation of multiple caspases. 3
hours after staurosporine addition, cells were fixed and permeabilized before in-cell westerns were
performed, as described.9

T3 sequence (P55212 30-179): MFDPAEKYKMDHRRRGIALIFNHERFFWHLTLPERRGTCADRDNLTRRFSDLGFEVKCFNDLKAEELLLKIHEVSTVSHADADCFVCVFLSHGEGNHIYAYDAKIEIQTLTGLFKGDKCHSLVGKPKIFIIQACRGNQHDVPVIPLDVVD
T3 sequence (P55212 194-293): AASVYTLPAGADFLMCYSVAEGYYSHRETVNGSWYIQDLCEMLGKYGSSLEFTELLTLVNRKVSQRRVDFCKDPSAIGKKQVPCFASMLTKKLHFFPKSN
T2 sequence (P55212 194-293): as above
T2 sequence (P55212 30-179): as the sequence (P55212 30-179) above

In the case of `C=CS(=O)(=O)N1C[C@H](C(=O)Nc2ccc(OC(F)(F)F)cc2)C[C@H](c2ccccc2)C1` (racemic) [(±)-3-c], the IC50 (caspase-3 (C3)) is reported as > 500 µM.

With `C=CS(=O)(=O)N1C[C@H](C(=O)Nc2ccc(OC(F)(F)F)cc2)C[C@@H](c2ccccc2)C1` (racemic) [(±)-3-t] the IC50 (caspase-3 (C3)) was > 500 µM.

In the case of `O=C(NCCS)[C@H]1CCCN(C(=O)Cc2ccc(OC(F)(F)F)cc2)C1` [compound 1], the “C6 % labeling (MS) small subunit” value (C6 small subunit) is reported as 76% and the “C6 % labeling (MS) large subunit” value (C6 large subunit) is reported as 2%.

`C=CS(=O)(=O)N1CCC[C@@H](C(=O)Nc2ccc(OC(F)(F)F)cc2)C1` [2a] was tested, and the IC50 (caspase-3 (C3)) was > 500 µM and the IC50 [1] was 14.2 ± 2.4 µM.
